The structures appear in SMILES notation. Counter-ions that a name gives are not always drawn. Where only a bound is given, the exact number is not on record here.

The target of this test is T1, recombinant human ALK enzyme (ALK WT) (Homo sapiens, UniProt Q9UM73).
T1 construct: purchased Carna Biosciences 08-518
Description: ALK WT cell free enzymatic assay (TR-FRET). Type of test: biochemical. To be noted: 1 μM ATP; for IC50: 10 point dose response; for inhibition at 0.1 µM: compound at 100 nM; for inhibition at 0.1 µM / inhibition at 1 µM: 30 min pre-incubation; for inhibition at 1 µM: compound at 1 μM. The procedure, abridged:
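Read-out is TR-FRET (665 nm/615 nm ratio) using an Eu-labeled anti-phosphotyrosine antibody. Compound is pre-incubated 30 min with recombinant human ALK, then reacted 30 min with 1 μM ATP and 40 nM Poly GT substrate. Values are percent inhibition at 100 nM and 1 μM, plus IC50 from 10-point variable-slope regression.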
(TR-FRET usually uses a lanthanide donor and a delayed reading to cut background.)

T1 sequence (Q9UM73 1058-1620 limits assumed): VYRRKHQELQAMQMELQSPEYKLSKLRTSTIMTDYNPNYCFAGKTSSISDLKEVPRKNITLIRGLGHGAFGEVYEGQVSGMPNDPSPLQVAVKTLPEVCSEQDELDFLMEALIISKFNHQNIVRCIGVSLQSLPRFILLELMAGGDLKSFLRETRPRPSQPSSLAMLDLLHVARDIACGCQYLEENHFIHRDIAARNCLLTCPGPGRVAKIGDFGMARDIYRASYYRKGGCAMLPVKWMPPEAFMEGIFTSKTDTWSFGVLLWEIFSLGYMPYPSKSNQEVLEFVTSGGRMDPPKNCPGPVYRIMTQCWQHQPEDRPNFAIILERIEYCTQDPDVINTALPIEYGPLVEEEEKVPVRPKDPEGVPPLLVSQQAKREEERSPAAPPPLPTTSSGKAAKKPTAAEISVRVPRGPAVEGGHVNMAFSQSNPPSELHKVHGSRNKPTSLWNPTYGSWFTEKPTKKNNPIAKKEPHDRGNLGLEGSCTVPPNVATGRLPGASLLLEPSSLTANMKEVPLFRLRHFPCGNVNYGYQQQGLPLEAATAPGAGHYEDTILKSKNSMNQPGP

As to `Cc1c(-c2c[nH]c3ncc(-c4ccc(C5CCNCC5)c(F)c4)cc23)cnn1Cc1cccc(F)c1` [Example 165, 5-(3-fluoro-4-(piperidin-4-yl)phenyl)-3-(1-(3-fluorobenzyl)-5-methyl-1H-pyrazol-4-yl)-1H-pyrrolo[2,3-b]pyridine], the IC50 (as a rule, the concentration that gives 50% inhibition) is < 50 nM; the inhibition (in general, the relative decrease from the control value, in per cent) at 0.1 µM stood at 99%; the inhibition at 1 µM amounted to 100%.

Take `Fc1cccc(Cn2cc(-c3c[nH]c4ncc(-c5ccc(C6CCNCC6)nc5)cc34)cn2)c1` [Example 159, 3-(1-(3-fluorobenzyl)-1H-pyrazol-4-yl)-5-(6-(piperidin-4-yl)pyridin-3-yl)-1H-pyrrolo[2,3-b]pyridine]: the half-maximal inhibitory concentration (IC50) is < 50 nM, the inhibition at 0.1 µM was determined as 91% and the inhibition at 1 µM was 100%.

For the compound `Cc1nn(Cc2cccc(F)c2)c(C)c1-c1c[nH]c2ncc(-c3cccc(CC4CCNCC4)c3)cc12` [Example 99, 3-(1-(3-fluorobenzyl)-3,5-dimethyl-1H-pyrazol-4-yl)-5-(3-(piperidin-4-ylmethyl)phenyl)-1H-pyrrolo[2,3-b]pyridine], the half-maximal inhibitory concentration (IC50) is < 50 nM, the inhibition at 0.1 µM was determined as 89% and the inhibition at 1 µM worked out at 99%.

Consider `Cc1cccc(Cn2cc(-c3c[nH]c4ncc(-c5ccc(N6CCN(C[C@H](C)O)CC6)cc5)cc34)cn2)c1` [Example 119, (S)-1-(4-(4-(3-(1-(3-methylbenzyl)-1H-pyrazol-4-yl)-1H-pyrrolo[2,3-b]pyridin-5-yl)phenyl)piperazin-1-yl)propan-2-ol], for which the concentration for half-maximal inhibition (IC50) was < 50 nM, the inhibition at 0.1 µM was 86% and the inhibition at 1 µM is 93%.

Take `O=C(CO)N1CCN(c2ccc(-c3cnc4[nH]cc(-c5cnn(Cc6cccc(F)c6)c5)c4c3)cc2)CC1` [Example 128, 1-(4-(4-(3-(1-(3-fluorobenzyl)-1H-pyrazol-4-yl)-1H-pyrrolo[2,3-b]pyridin-5-yl)phenyl)piperazin-1-yl)-2-hydroxyethanone]: the IC50 is < 50 nM, the inhibition at 0.1 µM worked out at 92% and the inhibition at 1 µM was found to be 94%.

`CS(=O)(=O)Nc1cccc(-c2cnc3[nH]cc(-c4cnn(Cc5cccc(Cl)c5)c4)c3c2)c1` [Example 10, N-(3-(3-(1-(3-chlorobenzyl)-1H-pyrazol-4-yl)-1H-pyrrolo[2,3-b]pyridin-5-yl)phenyl)methane sulfonamide]: the concentration for half-maximal inhibition (IC50) was in the range of 50 to 250 nM and the inhibition at 1 µM is 81%.

Consider `C[C@H](O)CN1CCN(c2ccc(-c3cnc4[nH]cc(-c5cnn(Cc6cccc(F)c6)c5)c4c3)cc2)CC1` [Example 104, (S)-1-(4-(4-(3-(1-(3-fluorobenzyl)-1H-pyrazol-4-yl)-1H-pyrrolo[2,3-b]pyridin-5-yl)phenyl)piperazin-1-yl)propan-2-ol], for which the IC50 was < 50 nM, the inhibition at 0.1 µM was determined as 98% and the inhibition at 1 µM was determined as 100%.

With `Fc1cc(-c2cnc3[nH]cc(-c4cnn(CCc5ccccc5)c4)c3c2)ccc1C1CCNCC1` [Example 167, 5-(3-fluoro-4-(piperidin-4-yl)phenyl)-3-(1-phenethyl-1H-pyrazol-4-yl)-1H-pyrrolo[2,3-b]pyridine], the IC50 is 50 to 250 nM, the inhibition at 0.1 µM is 69% and the inhibition at 1 µM was determined as 97%.

On to `Cc1nn(Cc2cccc(F)c2)c(C)c1-c1c[nH]c2ncc(-c3ccc(N4CCN(C[C@H](C)O)CC4)cc3)cc12` [Example 123, (2S)-1-(4-(4-(3-(1-(3-fluorobenzyl)-3,5-dimethyl-1H-pyrazol-4-yl)-1H-pyrrolo[2,3-b]pyridin-5-yl)phenyl)piperazin-1-yl)propan-2-ol], for which the 50% inhibitory concentration (IC50) was < 50 nM, the inhibition at 0.1 µM was 92% and the inhibition at 1 µM was found to be 96%.

As to `CC(C)N1CCN(c2cccc(-c3cnc4[nH]cc(-c5cnn(Cc6cccc(F)c6)c5)c4c3)c2)CC1` [Example 35, 3-(1-(3-fluorobenzyl)-1H-pyrazol-4-yl)-5-(3-(4-isopropylpiperazin-1-yl)phenyl)-1H-pyrrolo[2,3-b]pyridine], the IC50 was < 50 nM, the inhibition at 0.1 µM was found to be 98% and the inhibition at 1 µM is 99%.

`Fc1cccc(Cn2cc(-c3c[nH]c4ncc(-c5ccc(NC6CCNCC6)cc5)cc34)cn2)c1` [Example 100, N-(4-(3-(1-(3-fluorobenzyl)-1H-pyrazol-4-yl)-1H-pyrrolo[2,3-b]pyridin-5-yl)phenyl)piperidin-4-amine]: the IC50 is < 50 nM, the inhibition at 0.1 µM came to 100% and the inhibition at 1 µM was determined as 100%.

Regarding `CC(=O)N1CCN(c2ccc(-c3cnc4[nH]cc(-c5c(C)nn(Cc6cccc(F)c6)c5C)c4c3)cc2)CC1` [Example 49, 1-(4-(4-(3-(1-(3-fluorobenzyl)-3,5-dimethyl-1H-pyrazol-4-yl)-1H-pyrrolo[2,3-b]pyridin-5-yl)phenyl)piperazin-1-yl)ethanone], the 50% inhibitory concentration (IC50) is < 50 nM, the inhibition at 0.1 µM came to 70% and the inhibition at 1 µM is 91%.

Turning to `COc1cc(-c2cnc3[nH]cc(-c4cnn(Cc5cccc(F)c5)c4)c3c2)ccc1N1CCN(C[C@H](C)O)CC1` [Example 112, (S)-1-(4-(4-(3-(1-(3-fluorobenzyl)-1H-pyrazol-4-yl)-1H-pyrrolo[2,3-b]pyridin-5-yl)-2-methoxyphenyl)piperazin-1-yl)propan-2-ol], the inhibition at 0.1 µM worked out at 90% and the inhibition at 1 µM was determined as 100%.

With `CS(=O)(=O)Nc1cccc(-c2cnc3[nH]cc(-c4cnn(Cc5cccc([N+](=O)[O-])c5)c4)c3c2)c1` [Example 7, N-(3-(3-(1-(3-nitrobenzyl)-1H-pyrazol-4-yl)-1H-pyrrolo[2,3-b]pyridin-5-yl)phenyl)methane sulfonamide], the inhibition at 0.1 µM came out at 20% and the inhibition at 1 µM stood at 53%.

As to `c1ccc(CCn2cc(-c3c[nH]c4ncc(-c5ccc(C6CCNCC6)cc5)cc34)cn2)cc1` [Example 88, 3-(1-phenethyl-1H-pyrazol-4-yl)-5-(4-(piperidin-4-yl)phenyl)-1H-pyrrolo[2,3-b]pyridine], the IC50 is < 50 nM, the inhibition at 0.1 µM was found to be 89% and the inhibition at 1 µM was 99%.

For the compound `CS(=O)(=O)Nc1cc(-c2cnc3[nH]cc(-c4ccn(Cc5cc(F)cc(F)c5)n4)c3c2)ccc1N1CCNCC1` [Example 113, N-(5-(3-(1-(3,5-difluorobenzyl)-1H-pyrazol-3-yl)-1H-pyrrolo[2,3-b]pyridin-5-yl)-2-(piperazin-1-yl)phenyl)methanesulfonamide], the concentration for half-maximal inhibition (IC50) was < 50 nM, the inhibition at 0.1 µM came to 90% and the inhibition at 1 µM was 97%.

In the case of `CCS(=O)(=O)N1CCN(c2ccc(-c3cnc4[nH]cc(-c5cnn(Cc6cccc(F)c6)c5)c4c3)cn2)CC1` [Example 156, 5-(6-(4-(ethylsulfonyl)piperazin-1-yl)pyridin-3-yl)-3-(1-(3-fluorobenzyl)-1H-pyrazol-4-yl)-1H-pyrrolo[2,3-b]pyridine], the 50% inhibitory concentration (IC50) was < 50 nM, the inhibition at 0.1 µM is 69% and the inhibition at 1 µM came to 91%.

For `Cc1nn(Cc2cccc(F)c2)c(C)c1-c1c[nH]c2ncc(-c3ccc(N4CCNCC4)c(NS(C)(=O)=O)c3)cc12` [Example 58, N-(5-(3-(1-(3-fluorobenzyl)-3,5-dimethyl-1H-pyrazol-4-yl)-1H-pyrrolo[2,3-b]pyridin-5-yl)-2-(piperazin-1-yl)phenyl)methanesulfonamide hydrochloride], the IC50 was < 50 nM, the inhibition at 0.1 µM turned out to be 92% and the inhibition at 1 µM was 100%.

The values above are taken from patent US9353107B2 (Aurigene Discovery Technologies Limited, priority 2012, dated 2016).
